From ChEMBL document CHEMBL5608113, “Targeting of CAF-induced therapy resistance in CRC organoid-stroma co-cultures” (2024)

Tests used:
Type in all cases: functional, Homo sapiens
Conditions in all cases: Homo sapiens, read-out: Cell Viability; for viability at 1 µM: Concentration 1 uM; for viability at 10 µM: Concentration 10 uM
Colon cancer organoid [1] = test: Targeting of F14 CAF-induced therapy resistance in O14 CRC organoid-stroma co-culture. Cell viability is reported without Gefitinib.
Colon cancer organoid [2] = test: Targeting of F14 CAF-induced therapy resistance in O14 CRC organoid-stroma co-culture. Cell viability is reported with Gefitinib.
Colon cancer organoid [3] = test: Targeting of F14 CAF-induced therapy resistance in O23 CRC organoid-stroma co-culture. Cell viability is reported without Gefitinib.
Colon cancer organoid [4] = test: Targeting of F14 CAF-induced therapy resistance in O23 CRC organoid-stroma co-culture. Cell viability is reported with Gefitinib.
Colon cancer organoid [5] = test: Targeting of F14 CAF-induced therapy resistance in O23 CRC organoid-stroma co-culture. Cell viability is reported with SN-38.

Molecule `CNC(=O)Nc1ccc2c(c1)CC[C@@]21OC(=O)N(CC(=O)N(Cc2ccc(F)cc2)[C@@H](C)C(F)(F)F)C1=O` [A-485] has a viability at 1 µM (Colon cancer organoid [1]) of 65.4%, a viability at 1 µM (Colon cancer organoid [2]) of 23.9% and a viability at 1 µM (Colon cancer organoid [3]) of 60.4%. It also gave a viability at 1 µM (Colon cancer organoid [4]) of 34.6% and a viability at 1 µM (Colon cancer organoid [5]) of 51%.
In the case of `CCCc1cc(C)[nH]c(=O)c1CNC(=O)c1cc(-c2ccnc(N3CCN(C)CC3)c2)cc2c1cnn2C(C)C`, the viability at 10 µM (Colon cancer organoid [1]) is reported as 73%, the viability at 10 µM (Colon cancer organoid [2]) is reported as 63.9% and the viability at 10 µM (Colon cancer organoid [3]) is reported as 119%. The viability at 10 µM (Colon cancer organoid [4]) was 74.3% and the viability at 10 µM (Colon cancer organoid [5]) was 94.5%.
For `CCn1c(-c2nc3cc(C(=O)N4CCCC(N)C4)ccc3n2C)cc2ccccc21` (stereo not given), the viability at 10 µM (Colon cancer organoid [1]) was 76.9%, the viability at 10 µM (Colon cancer organoid [2]) was 65% and the viability at 10 µM (Colon cancer organoid [3]) was 139%. The viability at 10 µM (Colon cancer organoid [4]) was 83.2% and the viability at 10 µM (Colon cancer organoid [5]) was 79.2%.
`CCCc1cc(C)[nH]c(=O)c1CNC(=O)c1cc(-c2ccc(N3CCN(C(C)C)CC3)nc2)cc2c1cnn2C(C)C` gave a viability at 10 µM (Colon cancer organoid [1]) of 95.6%, a viability at 10 µM (Colon cancer organoid [2]) of 77.8% and a viability at 10 µM (Colon cancer organoid [3]) of 152%. It also gave a viability at 10 µM (Colon cancer organoid [4]) of 68.8% and a viability at 10 µM (Colon cancer organoid [5]) of 102%.
Work on `CCC(=N\O)/C(C)=C/c1ccc(F)c(C)c1` [A-226] yielded a viability at 10 µM (Colon cancer organoid [1]) of 119%, a viability at 10 µM (Colon cancer organoid [2]) of 62.5% and a viability at 10 µM (Colon cancer organoid [3]) of 97.1%. The viability at 10 µM (Colon cancer organoid [4]) was 49.8% and the viability at 10 µM (Colon cancer organoid [5]) was 93.1%.
`CN(C)CCCOc1ccc(-c2cc(NCCCn3cccn3)nc(S(C)(=O)=O)n2)cc1` gave a viability at 10 µM (Colon cancer organoid [1]) of 100%, a viability at 10 µM (Colon cancer organoid [2]) of 65.9% and a viability at 10 µM (Colon cancer organoid [3]) of 0.601%. For the same molecule, the viability at 10 µM (Colon cancer organoid [4]) was 1.76% and the viability at 10 µM (Colon cancer organoid [5]) was 1.65%.
In the case of `O=C(O)c1ccc(-c2coc3ncc(-c4ccccc4)cc23)cc1Cl`, the viability at 10 µM (Colon cancer organoid [1]) is reported as 71.5%, the viability at 10 µM (Colon cancer organoid [2]) is reported as 73.9% and the viability at 10 µM (Colon cancer organoid [3]) is reported as 214%. It also gave a viability at 10 µM (Colon cancer organoid [4]) of 172% and a viability at 10 µM (Colon cancer organoid [5]) of 103%.
`Cc1sc2c(c1C)C(c1ccc(Cl)cc1)=N[C@@H](CC(=O)NCCCCCCCCNC(=O)COc1cccc3c1C(=O)N(C1CCC(=O)NC1=O)C3=O)c1nnc(C)n1-2` (stereo not given in full) showed a viability at 10 µM (Colon cancer organoid [1]) of 3.56%, a viability at 10 µM (Colon cancer organoid [2]) of 2.25% and a viability at 10 µM (Colon cancer organoid [3]) of 6.5%. For the same molecule, the viability at 10 µM (Colon cancer organoid [4]) was 5.19% and the viability at 10 µM (Colon cancer organoid [5]) was 4.21%.
Work on `CN(C)C(=O)Cn1cc(-c2nc(C3(c4ccc(-c5cnc(N)nc5)cc4)CC3)no2)cn1` [BI 0153] yielded a viability at 10 µM (Colon cancer organoid [1]) of 110%, a viability at 10 µM (Colon cancer organoid [2]) of 82.1% and a viability at 10 µM (Colon cancer organoid [3]) of 171%. The viability at 10 µM (Colon cancer organoid [4]) was 48.9% and the viability at 10 µM (Colon cancer organoid [5]) was 98.3%.
`CC[C@H](CC(=O)O)n1c(=O)c2ncccc2n(Cc2cn(C)c3cc(C)cc(C)c23)c1=O` [BI-1942] was tested, and the viability at 10 µM (Colon cancer organoid [1]) was 93.3%, the viability at 10 µM (Colon cancer organoid [2]) was 37.9% and the viability at 10 µM (Colon cancer organoid [3]) was 113%. The viability at 10 µM (Colon cancer organoid [4]) was 60.8% and the viability at 10 µM (Colon cancer organoid [5]) was 65%.
`Cc1c(NC(=O)c2cc(C(N)=O)nc3cc(F)ccc23)c(C(F)(F)F)nn1Cc1ccc(C(C)(C)C)cc1` [BAY-588] was tested, and the viability at 1 µM (Colon cancer organoid [1]) was 45.5%, the viability at 1 µM (Colon cancer organoid [2]) was 31.3% and the viability at 1 µM (Colon cancer organoid [3]) was 111%. The viability at 1 µM (Colon cancer organoid [4]) was 43.1% and the viability at 1 µM (Colon cancer organoid [5]) was 104%.
`CN(C)C(=O)c1sc2nc(N3CCC(S(C)(=O)=O)CC3)cc(C(F)(F)F)c2c1N` [BI-5026] gave a viability at 10 µM (Colon cancer organoid [1]) of 108%, a viability at 10 µM (Colon cancer organoid [2]) of 51% and a viability at 10 µM (Colon cancer organoid [3]) of 83.8%. The viability at 10 µM (Colon cancer organoid [4]) was 50% and the viability at 10 µM (Colon cancer organoid [5]) was 79.7%.
In the case of `CCOC(=O)Nc1cc(-c2ccc(C)c(NS(C)(=O)=O)c2)nn2c(C)nnc12`, the viability at 10 µM (Colon cancer organoid [1]) is reported as 59.2%, the viability at 10 µM (Colon cancer organoid [2]) is reported as 14% and the viability at 10 µM (Colon cancer organoid [3]) is reported as 146%. It also gave a viability at 10 µM (Colon cancer organoid [4]) of 63.4% and a viability at 10 µM (Colon cancer organoid [5]) of 79.5%.
With `CNC(=O)c1cc(C(=O)NC2CC2)cn(Cc2ccccc2)c1=O` [GSK620] the viability at 10 µM (Colon cancer organoid [1]) was 116%, the viability at 10 µM (Colon cancer organoid [2]) was 24.6% and the viability at 10 µM (Colon cancer organoid [3]) was 111%. The viability at 10 µM (Colon cancer organoid [4]) was 60.9% and the viability at 10 µM (Colon cancer organoid [5]) was 66.8%.
`COc1cccc2c1c(O)c(C(=O)N(C)c1ccc(C(F)(F)F)cc1)c(=O)n2C` [TASQUINIMOD] was tested, and the viability at 10 µM (Colon cancer organoid [1]) was 80.1%, the viability at 10 µM (Colon cancer organoid [2]) was 61.6% and the viability at 10 µM (Colon cancer organoid [3]) was 99.2%. For the same molecule, the viability at 10 µM (Colon cancer organoid [4]) was 47.3% and the viability at 10 µM (Colon cancer organoid [5]) was 83%.
`Cc1sc2c(c1C)C(c1ccc(Cl)cc1)=N[C@H](CC(=O)OC(C)(C)C)c1nnc(C)n1-2` showed a viability at 10 µM (Colon cancer organoid [1]) of 103%, a viability at 10 µM (Colon cancer organoid [2]) of 55.8% and a viability at 10 µM (Colon cancer organoid [3]) of 130%. For the same molecule, the viability at 10 µM (Colon cancer organoid [4]) was 72% and the viability at 10 µM (Colon cancer organoid [5]) was 73.3%.
